Assay results taken from ChEMBL document CHEMBL1139445, “Synthesis of potent and selective 2-azepanone inhibitors of human tryptase” (Bioorg Med Chem Lett, 2004).
Several values for one entry are separate records, joined by “and”; a condition that tells them apart may be missing. Equal entries are not always repeated.

Tests used:
Tryptase = Tryptase (Homo sapiens, UniProt Q9BZJ3+Q15661+Q9NRR2); test: Inhibition of human tryptase.; format: protein assay
Serine protease 1 = Serine protease 1 (Homo sapiens, UniProt P07477); test: Compound was tested for inhibition of human trypsin; set-up: reference not given here
Serine protease 1, sequence (P07477 whole entry): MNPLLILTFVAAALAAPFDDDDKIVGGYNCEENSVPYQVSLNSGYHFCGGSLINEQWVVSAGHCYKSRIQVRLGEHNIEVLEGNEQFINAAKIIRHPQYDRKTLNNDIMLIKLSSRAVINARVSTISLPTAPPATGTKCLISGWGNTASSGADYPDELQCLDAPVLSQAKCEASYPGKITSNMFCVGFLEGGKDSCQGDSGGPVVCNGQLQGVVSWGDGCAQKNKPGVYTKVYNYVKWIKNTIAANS

[1] = target: Urokinase-type plasminogen activator (Homo sapiens, UniProt P00749); test: Compound was tested for inhibition of human urokinase-type plasminogen activator

IC50 (Tryptase) | Compound | selectivity ratio (Serine protease 1) | selectivity ratio [1]
2.9 µM | CCc1ccc(-c2ccc(C(=O)NC3CCCCN(CC(=O)Nc4cccc(CN)c4)C3=O)cc2)cc1 (centres undefined) |  | 
0.074 µM | Cc1ccc(CN)cc1NC(=O)CN1CCCCC(NC(=O)c2ccc(-c3ccccc3)cc2)C1=O (centres undefined) | > 450 | > 450
3.6 µM | NCc1ccc(NC(=O)CN2CCCCC(NC(=O)c3ccc(-c4ccccc4)cc3)C2=O)cc1 (centres undefined) |  | 
> 33 µM | Nc1ccc(CNC(=O)CN2CCCCC(NC(=O)c3ccc(-c4ccccc4)cc3)C2=O)cc1 (centres undefined) |  | 
12 µM | NCCCCCNC(=O)CN1CCCCC(NC(=O)c2ccc(-c3ccccc3)cc2)C1=O (centres undefined) |  | 
> 33 µM | NC1CCCc2ccc(NC(=O)CN3CCCCC(NC(=O)c4ccc(-c5ccccc5)cc4)C3=O)cc21 (centres undefined) |  | 
> 33 µM | NCCCCCCNC(=O)CN1CCCCC(NC(=O)c2ccc(-c3ccccc3)cc2)C1=O (centres undefined) |  | 
0.89 µM | COc1ccc(CN)cc1NC(=O)CN1CCCCC(NC(=O)c2ccc(-c3ccccc3)cc2)C1=O (centres undefined) |  | 
> 33 µM | NCCCCNC(=O)CN1CCCCC(NC(=O)c2ccc(-c3ccccc3)cc2)C1=O (centres undefined) |  | 
2.9 µM | NCc1cccc(NC(=O)CN2CCCCC(NC(=O)CCCCc3ccccc3)C2=O)c1 (centres undefined) |  | 
4.6 µM | NCc1cccc(NC(=O)CN2CCCCC(NC(=O)COc3ccc4ccccc4c3)C2=O)c1 (centres undefined) |  | 
> 33 µM | O=C(CN1CCCCC(NC(=O)c2ccc(-c3ccccc3)cc2)C1=O)NCC1CCNCC1 (centres undefined) |  | 
> 33 µM | O=C(CN1CCCCC(NC(=O)c2ccc(-c3ccccc3)cc2)C1=O)Nc1ccc2c(c1)CNCC2 (centres undefined) |  | 

The remaining lines, values behind:

Compound | IC50 (Tryptase) | selectivity ratio (Serine protease 1) | selectivity ratio [1]
NCc1cccc(NC(=O)CN2CCCCC(NC(=O)c3ccc(-c4ccccc4)cc3)C2=O)c1 (centres undefined) | 0.25 µM and > 0.25 µM | > 130 | > 130
Cc1ccc(-c2ccc(C(=O)NC3CCCCN(CC(=O)Nc4cccc(CN)c4)C3=O)cc2)cc1 (centres undefined) | 1.3 µM |  | 
NCc1cccc(CNC(=O)CN2CCCCC(NC(=O)c3ccc(-c4ccccc4)cc3)C2=O)c1 (centres undefined) | 13 µM |  | 
NCCc1ccc(NC(=O)CN2CCCCC(NC(=O)c3ccc(-c4ccccc4)cc3)C2=O)cc1 (centres undefined) | 11 µM |  | 
NCC1CCC(NC(=O)CN2CCCCC(NC(=O)c3ccc(-c4ccccc4)cc3)C2=O)CC1 (centres undefined) | 12 µM |  | 
NCc1cccc(NC(=O)CN2CCCCC(NC(=O)c3ccc(C4CCCCC4)cc3)C2=O)c1 (centres undefined) | 0.98 µM |  | 
CNCc1cccc(NC(=O)CN2CCCCC(NC(=O)c3ccc(-c4ccccc4)cc3)C2=O)c1 (centres undefined) | > 33 µM |  | 
NC(=O)c1cccc(NC(=O)CN2CCCCC(NC(=O)c3ccc(-c4ccccc4)cc3)C2=O)c1 (centres undefined) | > 33 µM |  | 
NCc1cccc(NC(=O)CN2CCCCC(NC(=O)Cc3ccc(-c4ccccc4)cc3)C2=O)c1 (centres undefined) | 5.2 µM |  | 
NCc1cccc(NC(=O)CN2CCCCC(NC(=O)c3cnc4ccccc4c3)C2=O)c1 (centres undefined) | 15 µM |  | 
NCc1cccc(NC(=O)CN2CCCCC(NC(=O)c3ccc(-c4ccc(Cl)c(Cl)c4)cc3)C2=O)c1 (centres undefined) | 2.1 µM |  | 
CCc1ccc(C(=O)NC2CCCCN(CC(=O)Nc3cccc(CN)c3)C2=O)cc1 (centres undefined) | 4.6 µM |  | 
NCc1ccccc1NC(=O)CN1CCCCC(NC(=O)c2ccc(-c3ccccc3)cc2)C1=O (centres undefined) | > 33 µM |  | 
NCc1ccc(Cl)c(NC(=O)CN2CCCCC(NC(=O)c3ccc(-c4ccccc4)cc3)C2=O)c1 (centres undefined) | 0.038 µM | 360 | > 870
Nc1cccc(CNC(=O)CN2CCCCC(NC(=O)c3ccc(-c4ccccc4)cc3)C2=O)c1 (centres undefined) | > 33 µM |  | 
CCN(CC)Cc1cccc(NC(=O)CN2CCCCC(NC(=O)c3ccc(-c4ccccc4)cc3)C2=O)c1 (centres undefined) | > 33 µM |  | 
NCc1cccc(NC(=O)CN2CCCCC(NC(=O)c3ccc(Cc4ccccc4)cc3)C2=O)c1 (centres undefined) | 0.98 µM |  | 
NCc1cccc(NC(=O)CN2CCCCC(NC(=O)CC(c3ccccc3)c3ccccc3)C2=O)c1 (centres undefined) | 0.2 µM | > 170 | > 170
